In one series the test system is HepG2. Nature of the series: Cytotoxicity against human HepG2 cells upto 100 uM incubated for 3 hrs by MTT assay. Particulars: hepg2, 3 h. On the technique in general: Tetrazolium assays rely on reduction of a dye to a coloured formazan, in cell work by metabolically active cells.
Series [1] can be described thus: Solubility of compound. Type of series: physicochemical.
The subject of series [2] is SK-N-BE(2). The experiment in a line: Cytotoxicity against human SK-N-BE(2) cells upto 100 uM incubated for 3 hrs by MTT assay. Type of series: toxicity, cell-based.
Series [3] concerns SK-N-BE(2). Nature of the series: Inhibition of t-BHP-induced ROS production in human SK-N-BE(2) cells at 100 uM incubated for 3 hrs by DCFH-DA probe based analysis. Type of series: functional, cell-based.
The target in another series is Acetylcholinesterase (Homo sapiens, UniProt P22303). The experiment in a line: Inhibition of human erythrocyte AChE using acetylthiocholine iodide as substrate preincubated for 10 mins followed by substrate addition measured after 15 mins by Ellman's method. (In general: In Ellman's method for cholinesterases, released thiocholine reacts with DTNB.)
Chain of Acetylcholinesterase (P22303 whole entry): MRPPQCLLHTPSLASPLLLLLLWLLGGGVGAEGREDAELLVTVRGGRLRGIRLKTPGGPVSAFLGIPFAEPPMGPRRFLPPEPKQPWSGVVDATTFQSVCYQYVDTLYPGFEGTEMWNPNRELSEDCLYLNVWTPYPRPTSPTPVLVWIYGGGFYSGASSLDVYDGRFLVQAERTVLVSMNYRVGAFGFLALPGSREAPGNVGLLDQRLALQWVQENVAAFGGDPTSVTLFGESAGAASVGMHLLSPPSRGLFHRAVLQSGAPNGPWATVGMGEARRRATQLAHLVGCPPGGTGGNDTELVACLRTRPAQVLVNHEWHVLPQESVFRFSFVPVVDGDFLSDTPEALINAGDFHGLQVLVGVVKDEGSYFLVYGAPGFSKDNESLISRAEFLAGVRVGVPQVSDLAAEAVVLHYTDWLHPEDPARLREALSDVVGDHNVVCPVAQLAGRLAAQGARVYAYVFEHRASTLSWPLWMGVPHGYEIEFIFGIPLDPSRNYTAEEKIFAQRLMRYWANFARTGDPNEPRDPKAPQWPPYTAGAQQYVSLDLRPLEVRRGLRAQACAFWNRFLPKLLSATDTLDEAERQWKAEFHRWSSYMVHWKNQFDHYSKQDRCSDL
The next series has as its target Cholinesterase (Homo sapiens, UniProt P06276). Nature of the series: Inhibition of human BChE by Ellman's method.
The nature of series [4]: Antioxidant activity assessed as DPPH radical scavenging activity incubated for 2 hrs under dark condition by absorbance based assay. Type of series: functional. On the technique in general: Loss of DPPH colour is used to gauge radical scavenging.
Series [5] in a line: Antioxidant activity assessed as trolox equivalent of ORAC radical scavenging activity incubated for 15 mins by fluorescence based assay. Type of series: functional.
Series [6] can be described thus: Antioxidant activity assessed as ABTS radical scavenging activity measured after 6 mins by absorbance based assay. It counts as functional.

The values that follow come from ChEMBL document CHEMBL6092143, “Synthesis and evaluation of lipoic acid - donepezil hybrids for Alzheimer's disease using a straightforward strategy” (Bioorg Med Chem Lett, 2024).

SMILES strings stand for the structures. The source made the active and inactive calls. The rule behind the calls is not given here.

Chain of Cholinesterase (P06276 whole entry): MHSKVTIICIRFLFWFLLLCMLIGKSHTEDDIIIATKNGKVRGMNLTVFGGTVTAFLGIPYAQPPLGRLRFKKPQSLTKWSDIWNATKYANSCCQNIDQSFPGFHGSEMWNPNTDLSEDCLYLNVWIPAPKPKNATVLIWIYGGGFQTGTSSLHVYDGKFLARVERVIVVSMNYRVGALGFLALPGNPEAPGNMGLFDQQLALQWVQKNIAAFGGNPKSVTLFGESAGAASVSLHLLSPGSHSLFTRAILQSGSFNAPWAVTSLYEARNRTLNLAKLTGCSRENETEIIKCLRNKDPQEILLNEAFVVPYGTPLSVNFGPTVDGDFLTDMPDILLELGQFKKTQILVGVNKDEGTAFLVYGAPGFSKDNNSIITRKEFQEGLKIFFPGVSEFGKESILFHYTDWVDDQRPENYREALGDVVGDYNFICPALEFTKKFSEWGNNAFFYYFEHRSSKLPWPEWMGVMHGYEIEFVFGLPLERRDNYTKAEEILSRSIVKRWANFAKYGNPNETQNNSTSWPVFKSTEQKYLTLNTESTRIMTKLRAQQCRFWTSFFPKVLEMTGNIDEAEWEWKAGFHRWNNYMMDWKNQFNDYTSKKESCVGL

As a reminder, the IC50 is the point on the concentration scale where inhibition reaches its midpoint. Usually EC50 stands for the midpoint of the concentration-response curve. Turning to `O=C1c2cc(O)c(O)cc2CC1CC1CCN(Cc2ccccc2)CC1` (stereo unspecified), the Activity entry with HepG2 is “Non-toxic”; in the series with SK-N-BE(2) [2] it was “Non-toxic”; in [5], 2.2. For the same compound, the solubility result in series [1] is reported as “soluble”. For the same compound, the “ROS inhibition activity (qualitative)” value in the series on SK-N-BE(2) [3] is listed as “Active; Activity Comparable To Vitamin E”. The IC50 on Acetylcholinesterase is 1.81 µM; on Cholinesterase, 246 µM. Also, the EC50 came to 29.5 µM in series [4] and 12.3 µM in series [6].
As to `COc1cc2c(cc1OCCCCCC1CCSS1)CC(CC1CCN(Cc3ccccc3)CC1)C2=O` (stereo unspecified), the Activity result with HepG2 is “Non-toxic”; with SK-N-BE(2) [2], “Non-toxic”; in series [5] it was below 0.5. For the same compound, the solubility entry in series [1] is listed as “Insoluble”. Also, the “ROS inhibition activity (qualitative)” value in the series on SK-N-BE(2) [3] is recorded as “Active; More Pronounced Effect Than Lipoic Acid”. Moreover, the IC50 came out at 0.00912 µM at Acetylcholinesterase and 3.26 µM on Cholinesterase. Further, the EC50 in [4] and in series [6] was above 400 µM throughout.
Take `COc1cc2c(cc1O)CC(CC1CCN(Cc3ccccc3)CC1)C2=O` (stereo unspecified): the IC50 was determined as 0.773 µM against Acetylcholinesterase and 35.8 µM on Cholinesterase. Moreover, the EC50 in series [4] amounted to 32.5 µM; in series [6], 8.5 µM. Moreover, the Activity in [5] worked out at 2.1.
`Cc1c(C)c2c(c(C)c1O)CC[C@@](C)(CCC[C@H](C)CCC[C@H](C)CCCC(C)C)O2` [ALPHA-TOCOPHEROL]: the Activity result is “Non-toxic” in the series on HepG2, “Non-toxic” in the series with SK-N-BE(2) [2] and 1 in series [5]. Also, the “ROS inhibition activity (qualitative)” value in the series on SK-N-BE(2) [3] was “Active”. Also, the results for the EC50 in [4] and in [6] were 27.5 µM and 15.5 µM, respectively.
In the case of `COc1cc2c(cc1OC(=O)CCCCC1CCSS1)C(=O)C(CC1CCN(Cc3ccccc3)CC1)C2` (stereo unspecified), the Activity entry is “Non-toxic” in the series on HepG2, “Non-toxic” with SK-N-BE(2) [2] and below 0.5 in series [5]. Besides, the solubility entry in series [1] is reported as “Insoluble”. For the same compound, in the series with SK-N-BE(2) [3], the “ROS inhibition activity (qualitative)” value is “inactive”. For the same compound, the IC50 at Acetylcholinesterase came out at 0.0278 µM; against Cholinesterase, 3.99 µM. Moreover, the EC50 in series [4] and in series [6] was above 400 µM in each case.
With `O=c1c(O)c(-c2ccc(O)c(O)c2)oc2cc(O)cc(O)c12` [QUERCETIN], the EC50 in series [4] was determined as 13.8 µM; in [6], 3.4 µM. In addition, in series [5], the Activity was 4.
Take `COc1cc2c(cc1OC)C(=O)C(CC1CCN(Cc3ccccc3)CC1)C2` (stereo unspecified) [DONEPEZIL]: the Activity result in the series with HepG2 is “Non-toxic”; in the series with SK-N-BE(2) [2], “Non-toxic”; in series [5], below 0.5. Further, the “ROS inhibition activity (qualitative)” value in the series on SK-N-BE(2) [3] was “inactive”. Besides, the EC50 in [4] and in series [6] was above 1000 µM each time.
For `COc1cc2c(cc1OCCCCCC1CCSS1)C(=O)C(CC1CCN(Cc3ccccc3)CC1)C2` (stereo unspecified), the values for the Activity result (with HepG2; in the series with SK-N-BE(2) [2]; in series [5]) were “Non-toxic”, “Non-toxic” and below 0.5, respectively. For the same compound, the “ROS inhibition activity (qualitative)” value with SK-N-BE(2) [3] is listed as “Active; More Pronounced Effect Than Lipoic Acid”. Moreover, the IC50 was 0.00763 µM at Acetylcholinesterase and 1.48 µM at Cholinesterase. Moreover, the EC50 in series [4] and in series [6] was above 400 µM in each case.
For `O=C(O)CCCC[C@@H]1CCSS1` [THIOCTIC ACID], the Activity result with HepG2 and in the series on SK-N-BE(2) [2] was “Non-toxic” throughout. Also, the “ROS inhibition activity (qualitative)” value in the series on SK-N-BE(2) [3] was “Active”.
As to `COc1cc2c(cc1O)C(=O)C(CC1CCN(Cc3ccccc3)CC1)C2` (stereo unspecified), the Activity entry was “Non-toxic” in the series with HepG2, “Non-toxic” in the series with SK-N-BE(2) [2] and 9.4 in series [5]. Besides, the “ROS inhibition activity (qualitative)” value in the series with SK-N-BE(2) [3] was “inactive”. The results for the IC50 on Acetylcholinesterase and on Cholinesterase were 0.872 µM and 34.5 µM, respectively. For the same compound, the EC50 in series [4] is above 400 µM; in series [6] it was 152 µM.
